Patent US10206909B2, “3-(1H-pyrrolo[2,3-B]pyridin-2-yl)-1H-pyrazolo[4,3-B]pyridines and therapeutic uses thereof” (Samumed, LLC, priority 2015, dated 2019)

How the values were obtained:
[1] = system: IL-6 (THP-1 cells); experiment: IL-6 inhibition in LPS-stimulated THP-1 cells (HTRF); format: cell-based; details: Homo sapiens; for EC50: THP-1 cells, LPS 500 ng/mL, 22 hours, IL6 HTRF; for inhibition at 10 µM: given where EC50 >10 μM, THP-1, IL6, read-out: percent inhibition at 10 μM
Experimental: Human Monocyte Cell Culture: Human monocyte cell line (THP-1 cells; Catalog # TIB-202, ATCC, Manassas, Va.) were cultured in Roswell Park Memorial Institute (RPMI) 1640 Medium (Catalog #21870-100, Buffalo, N.Y.) with 1% L-glutamine, 1% HEPES, 1% Sodium Pyruvate, 2% Sodium Bicarbonate supplemented with 100 units/mL penicillin, 50 μg/mL streptomycin, 2-mercaptoethanol (0.05 mM) [basal medium] and 10% fetal bovine serum (Catalog #16140089, Life Technologies, Carlsbad, Calif.) at 37° C. and 5% CO2.
Compound Screening: THP-1 cells were cultured in basal media with 1% FBS for 24 hours before the start of the assay. Each compound was dissolved in DMSO as a 10 mM stock and used to prepare compound source plates. Serial dilution (1:3, 10-point dose-response curves starting from 10 μM) and compound transfer was performed using the ECHO 550 (Labcyte, Sunnyvale, Calif.) into 384-well white low volume assay plates (Greiner Bio-One) with appropriate DMSO backfill for a final DMSO concentration of 0.1%. THP-1 cells were plated at 5000 cells/well in the 384-well plates and incubated at 37° C. for 2 h. 500 ng/mL of LPS was added after 2 hours and cells were incubated for another 22 hours at 37° C. Plates were spun in a centrifuge for 1 minute at […] and a mixture of anti-IL6 XL665, and anti-IL6 Cryptate diluted in reconstitution buffer (Cisbio Inc.) was added to each well. Following incubation for 3 hrs at room temperature, Homogeneous Time-Resolved Fluorescence (HTRF) was measured using the Envision (Perkin Elmer) at 665 nm and […]. The ratio of fluorescence at 665 nm to 620 nm was used as a readout for IL6 quantification. All samples were processed in duplicate. Readings were normalized to DMSO treated cells and normalized activities were utilized for EC50 calculations using the dose-response log (inhibitor) vs. response —variable slope (four parameters) nonlinear regression feature available in GraphPad Prism 5.0 (or Dotmatics). For EC50 of >10 μM, the percent inhibition at 10 μM is provided.

[2] = system: primary human fibroblasts derived from IPF patients (LL29 cells); experiment: Inhibition of the fibrotic process: αSMA staining in TGF-β1 treated fibroblasts; format: cell-based; details: Fibroblast; for EC50: 96 h, LL29 cells, TGF-β1 20 ng/mL, 4 days, % αSMA positive cells; for inhibition at 10 µM: given where EC50 >10 μM, LL29, αSMA, read-out: percent inhibition at 10 μM
From the text: Representative compounds were screened using primary human fibroblasts (derived from IPF patients) treated with TGF-β1 to determine their ability to inhibit the fibrotic process.
Human Fibroblast Cell Culture: Primary human fibroblasts derived from IPF patients (LL29 cells) [^1Xiaoqiu Liu, et. al., “Fibrotic Lung Fibroblasts Show Blunted Inhibition by cAMP Due to Deficient cAMP Response Element-Binding Protein Phosphorylation”, Journal of Pharmacology and Experimental Therapeutics (2005), 315(2), 678-687; ^2Watts, K. L., et. al., “RhoA signaling modulates cyclin D1 expression in human lung fibroblasts; implications for idiopathic pulmonary fibrosis”, Respiratory Research (2006), 7(1), 88] were obtained from American Type Culture Collection (ATCC) and expanded in F12 medium supplemented with 15% Fetal Bovine Serum and Penicillin/Streptomycin.
Compound Screening: Each compound was dissolved in DMSO as a 10 mM stock and used to prepare compound source plates. Serial dilution (1:2, 11-point dose-response curves from 10 μM to […]) and compound transfer was performed using the ECHO 550 (Labcyte, Sunnyvale, Calif.) into 384-well clear bottom assay plates (Greiner Bio-One) with appropriate DMSO backfill for a final DMSO concentration of 0.1%. LL29 cells are plated at 1,500 cells/well in 80 μL/well F12 medium supplemented with 1% Fetal Bovine Serum. One hour after addition of the cells, TGF-β1 (Peprotech; 20 ng/mL) was added to the plates to induce fibrosis (ref. 1 and 2 above). Wells treated with TGF-β1 and containing DMSO were used as controls. Cells were incubated at 37° C. and 5% CO2 for 4 days. Following incubation for 4 days, SYTOX green nucleic acid stain (Life Technologies [Thermo Fisher Scientific]) was added to the wells at a final concentration of 1 μM and incubated at room temperature for 30 min. Cells were then fixed using 4% formaldehyde (Electron Microscopy Sciences), washed 3 times with PBS followed by blocking and permeabilization using 3% Bovine Serum Albumin (BSA; Sigma) and 0.3% Triton X-100 (Sigma) in PBS. Cells were then stained with antibody specific to α-smooth muscle actin (αSMA; Abcam) (ref. 1 and 2 above) in 3% Bovine Serum Albumin (BSA; Sigma) and 0.3% Triton X-100 (Sigma) in PBS, and incubated overnight at 4° C. Cells were then washed 3 times with PBS, followed by incubation with Alexa Flor-647 conjugated secondary antibody (Life Technologies [Thermo Fisher Scientific]) and DAPI at room temperature for 1 hour. Cells were then washed 3 times with PBS and plates were sealed for imaging. αSMA staining was imaged by excitation at 630 nm and emission at 665 nm and quantified using the Compartmental Analysis program on the CellInsight CX5 (Thermo Scientific). Dead or apoptotic cells were excluded from analysis based on positive SYTOX green staining. % of total cells positive for αSMA were counted in each well and normalized to the average of 11 wells treated with TGF-β1 on the same plate using Dotmatics' Studies Software. The normalized averages (fold change over untreated) of 3 replicate wells for each compound concentration were used to create dose-responses curves and EC50 values were calculated using non-linear regression curve fit in the Dotmatics' Studies Software. For EC50 of >10 μM, the percent inhibition at 10 μM is provided.

SMILES	EC50 [1]	EC50 [2]	inhibition at 10 µM [1]	inhibition at 10 µM [2]
Fc1cccc(-c2ccnc3[nH]c(-c4n[nH]c5ccc(-c6cccnc6)nc45)cc23)c1 [Compound 4, 3-(4-(3-Fluorophenyl)-1H-pyrrolo[2,3-b]pyridin-2-yl)-5-(pyridin-3-yl)-1H-pyrazolo[4,3-b]pyridine]	1.84 µM	0.144 µM		
CC(C)(C)C(=O)Nc1cncc(-c2ccc3[nH]nc(-c4cc5c(-c6cccc(F)c6)ccnc5[nH]4)c3n2)c1 [Compound 8, N-(5-(3-(4-(3-Fluorophenyl)-1H-pyrrolo[2,3-b]pyridin-2-yl)-1H-pyrazolo [4,3-b]pyridin-5-yl)pyridin-3-yl)pivalamide]	> 10 µM	1.1 µM	13.7%	
Fc1cccc(-c2ccnc3[nH]c(-c4n[nH]c5ccc(-c6cncc(CN7CCCCC7)c6)nc45)cc23)c1 [Compound 15, 3-(4-(3-Fluorophenyl)-1H-pyrrolo[2,3-b]pyridin-2-yl)-5-(5-(piperidin-1-ylmethyl)pyridin-3-yl)-1H-pyrazolo[4,3-b]pyridine]	> 10 µM	> 10 µM	41%	10.3%
Cc1ccncc1-c1ccc2[nH]nc(-c3cc4c(-c5ccc(F)cc5)ccnc4[nH]3)c2n1 [Compound 33, 3-(4-(4-Fluorophenyl)-1H-pyrrolo[2,3-b]pyridin-2-yl)-5-(4-methylpyridin-3-yl)-1H-pyrazolo[4,3-b]pyridine]	> 10 µM	> 10 µM	5.4%	2.9%
O=C(Nc1cncc(-c2ccc3[nH]nc(-c4cc5c(-c6ccc(F)cc6)ccnc5[nH]4)c3n2)c1)c1ccccc1 [Compound 39, N-(5-(3-(4-(4-Fluorophenyl)-1H-pyrrolo[2,3-b]pyridin-2-yl)-1H-pyrazolo [4,3-b]pyridin-5-yl)pyridin-3-yl)benzamide]	> 10 µM	7.79 µM	7.7%	
Fc1ccc(-c2ccnc3[nH]c(-c4n[nH]c5ccc(-c6cncc(CN7CCC(F)(F)C7)c6)nc45)cc23)cc1 [Compound 54, 5-(5-((3,3-Difluoropyrrolidin-1-yl)methyl)pyridin-3-yl)-3-(4-(4-fluorophenyl)-1H-pyrrolo[2,3-b]pyridin-2-yl)-1H-pyrazolo[4,3-b]pyridine]	> 10 µM	0.374 µM	34.8%	
Fc1ccc(-c2ccnc3[nH]c(-c4n[nH]c5ccc(-c6cncnc6)nc45)cc23)cc1 [Compound 55, 3-(4-(4-Fluorophenyl)-1H-pyrrolo[2,3-b]pyridin-2-yl)-5-(pyrimidin-5-yl)-1H-pyrazolo[4,3-b]pyridine]	> 10 µM	> 10 µM	14.1%	0%
CC(C)CC(=O)Nc1cncc(-c2ccc3[nH]nc(-c4cc5c(-c6ccccc6F)ccnc5[nH]4)c3n2)c1 [Compound 58, N-(5-(3-(4-(2-Fluorophenyl)-1H-pyrrolo[2,3-b]pyridin-2-yl)-1H-pyrazolo [4,3-b]pyridin-5-yl)pyridin-3-yl)-3-methylbutanamide]	0.1 µM	> 10 µM		18.2%
CN(C)Cc1cncc(-c2ccc3[nH]nc(-c4cc5c(-c6ccccc6F)ccnc5[nH]4)c3n2)c1 [Compound 69, 1-(5-(3-(4-(2-Fluorophenyl)-1H-pyrrolo[2,3-b]pyridin-2-yl)-1H-pyrazolo [4,3-b]pyridin-5-yl)pyridin-3-yl)-N,N-dimethylmethanamine]	1.08 µM	2 µM		
O=C(Nc1cncc(-c2ccc3[nH]nc(-c4cc5c(-c6ccccc6F)ccnc5[nH]4)c3n2)c1)C1CC1 [Compound 76, N-(5-(3-(4-(2-Fluorophenyl)-1H-pyrrolo[2,3-b]pyridin-2-yl)-1H-pyrazolo [4,3-b]pyridin-5-yl)pyridin-3-yl)cyclopropanecarboxamide]	> 10 µM	5.26 µM	42.2%	
Fc1ccccc1-c1ccnc2[nH]c(-c3n[nH]c4ccc(-c5cncc(CNCc6ccccc6)c5)nc34)cc12 [Compound 80, N-Benzyl-1-(5-(3-(4-(2-fluorophenyl)-1H-pyrrolo[2,3-b]pyridin-2-yl)-1H-pyrazolo[4,3-b]pyridin-5-yl)pyridin-3-yl)methanamine]	> 10 µM	1.19 µM	18.2%	
Fc1ccccc1-c1ccnc2[nH]c(-c3n[nH]c4ccc(-c5ccccn5)nc34)cc12 [Compound 84, 3-(4-(2-Fluorophenyl)-1H-pyrrolo[2,3-b]pyridin-2-yl)-5-(pyridin-2-yl)-1H-pyrazolo[4,3-b]pyridine]	0.006 µM	> 10 µM		0%
c1cncc(-c2ccc3[nH]nc(-c4cc5c(-c6cccnc6)ccnc5[nH]4)c3n2)c1 [Compound 88, 5-(Pyridin-3-yl)-3-(4-(pyridin-3-yl)-1H-pyrrolo[2,3-b]pyridin-2-yl)-1H-pyrazolo[4,3-b]pyridine]	> 10 µM	> 10 µM	38.7%	25.3%
CN(C)c1cncc(-c2ccc3[nH]nc(-c4cc5c(-c6cccnc6)ccnc5[nH]4)c3n2)c1 [Compound 91, N,N-Dimethyl-5-(3-(4-(pyridin-3-yl)-1H-pyrrolo[2,3-b]pyridin-2-yl)-1H-pyrazolo[4,3-b]pyridin-5-yl)pyridin-3-amine]	> 10 µM	2.19 µM	36.3%	
CC(C)Nc1cncc(-c2ccc3[nH]nc(-c4cc5c(-c6cccnc6)ccnc5[nH]4)c3n2)c1 [Compound 96, N-Isopropyl-5-(3-(4-(pyridin-3-yl)-1H-pyrrolo[2,3-b]pyridin-2-yl)-1H-pyrazolo[4,3-b]pyridin-5-yl)pyridin-3-amine]	0.008 µM	> 10 µM		0%
c1cncc(-c2ccnc3[nH]c(-c4n[nH]c5ccc(-c6ccncc6)nc45)cc23)c1 [Compound 102, 3-(4-(Pyridin-3-yl)-1H-pyrrolo[2,3-b]pyridin-2-yl)-5-(pyridin-4-yl)-1H-pyrazolo[4,3-b]pyridine]	> 10 µM	> 10 µM	23.9%	0%
